pEC50: −log10 of the molar value.

The record followed here is US20180221352A1, “3-(1H-PYRROLO[2,3-C]PYRIDIN-2-YL)-1H-PYRAZOLO[3,4-B]PYRIDINES AND THERAPEUTIC USES THEREOF” (Samumed, LLC, priority 2015, published 2018).

Format in all cases: cell-based
Test [1] has as its system Wnt activity (Sp5-Luc reporter, SW480 colon carcinoma cells). Briefly: Wnt activity screening assay, Sp5-Luc reporter gene in SW480 cells. Conditions: Homo sapiens; for pEC50: Sp5-Luc reporter, SW480 cells, overnight incubation; for inhibition at 10 µM: SW480, read-out: percent inhibition at 10 μM. In short, it runs like this: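 SW480 cells stably carrying a luciferase reporter driven by an Sp5 promoter with eight TCF/LEF sites, plated overnight in 1% FBS medium at 37 °C. Luminescence read with BrightGlo. Signals normalized to DMSO-treated cells; EC50 from four-parameter variable-slope fit.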

The subject of test [2] is SW480 colon cancer cells. Briefly: Cell viability assay (CellTiter-Blue). Conditions: Homo sapiens; for pEC50: 96 h, SW480 cell viability, four days; for inhibition at 10 µM: SW480, 96 h, read-out: percent inhibition at 10 μM. In short, it runs like this: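 Fluorescence from resazurin reduced to resorufin by metabolically active cells was the read-out, taken after ~3 h with CellTiter-Blue.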

The test system of test [3] is primary human mesenchymal stem cells (hMSCs). Put plainly: Induction of chondrogenesis in hMSCs (nodule count). Conditions: 6 days; for EC50: concentration required to induce 50% levels of chondrogenesis vs TGF-β3, read-out: Conc (nM) of 50% TGF-β3 activity; for Emax: relative to TGF-β3 (10 ng/mL) positive control, read-out: Max. Activity as % TGF-β3 activity. An excerpt:
Representative compounds were screened using primary human mesenchymal stem cells (hMSCs) to determine their ability to induce chondrogenesis (process by which cartilage is developed).
Primary human mesenchymal stem cells (hMSCs) were purchased from Lonza (Walkersville, Md.) and expanded in Mesenchymal Stem Cell Growth Media (Lonza). Cells between passage 3 and 6 were used for the experiments.
To image chondrogenic nodules, the cells were fixed using 4% formaldehyde (Electron Microscopy Sciences), and stained with 2 μg/mL Rhodamine B (Sigma-Aldrich) and 20 μM Nile Red (Sigma-Aldrich) [Johnson K., et. al, A Stem Cell-Based Approach to Cartilage Repair, Science, (2012). […] Number of nodules in each well was normalized to the average of 3 DMSO treated wells on the same plate using Excel (Microsoft Inc.). The normalized averages (fold change over DMSO) of 3 replicate wells for each compound concentration were calculated. Due to solubility limitations of some of the compounds, curve fitting was incomplete leading to inaccurate EC50 determinations.
Using TGF-β3 as a positive control, the concentration of representative compounds required to induce 50% levels of chondrogenesis is reported. In addition, the maximum activity of each compound and the respective dose that each compound reached maximum chondrogenesis activity is reported.

The subject of test [4] is IL-6. Briefly: IL-6 inhibition in LPS-stimulated THP-1 cells (HTRF). The note with it: Homo sapiens; for pEC50: THP-1 cells, LPS 500 ng/mL, 22 hours, IL6 HTRF; for inhibition at 10 µM: THP-1, read-out: percent inhibition at 10 μM. The method in brief: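 Serum-reduced (1% FBS, 24 h) THP-1 cells, 5000/well, exposed to compound 2 h at 37 °C, then stimulated with 500 ng/mL LPS for 22 h. Secreted IL-6 measured by HTRF (665/620 ratio), normalised to DMSO; EC50 by four-parameter fit, duplicates.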

The subject of test [5] is primary human fibroblasts derived from IPF patients (LL29 cells). Briefly: Inhibition of fibrotic process, αSMA staining in TGF-β1 treated fibroblasts. Conditions: Fibroblast; for pEC50: 96 h, LL29 cells, TGF-β1 20 ng/mL, 4 days, % αSMA positive cells; for inhibition at 10 µM: read-out: percent inhibition at 10 μM. The method in brief: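 LL29 fibroblasts plated in F12 with 1% FBS were stimulated with TGF-β1 alongside compound, with TGF-β1 plus DMSO wells as controls. After 4 days of incubation, SYTOX green was added at 1 μM final for 30 min at room temperature.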

Take `CN(C)Cc1cncc(-c2cnc3[nH]nc(-c4cc5c(-c6ccccc6F)cncc5[nH]4)c3c2)c1` [Compound 69, 1-(5-(3-(4-(2-Fluorophenyl)-1H-pyrrolo[2,3-c]pyridin-2-yl)-1H-pyrazolo [3,4-b]pyridin-5-yl)pyridin-3-yl)-N,N-dimethylmethanamine]: the negative logarithm of the EC50 (pEC50) in test [1] was 5.60; in test [2] it was 5.98; in test [4], 6.88; in test [5], 5.72. Besides, the EC50 in test [3] is 30 nM. Also, the Emax in test [3] is 61%.

`O=C(Nc1cncc(-c2cnc3[nH]nc(-c4cc5c(-c6ccccc6F)cncc5[nH]4)c3c2)c1)C1CC1` [Compound 76, N-(5-(3-(4-(2-Fluorophenyl)-1H-pyrrolo[2,3-c]pyridin-2-yl)-1H-pyrazolo [3,4-b]pyridin-5-yl)pyridin-3-yl)cyclopropanecarboxamide]: the pEC50 in test [1] was 6.41; in test [2], 6.53; in test [4] it was less than 5.00; in test [5], 6.96. The EC50 in test [3] was 10 nM. In addition, in test [3], the Emax turned out to be 52%. Also, in test [4], the inhibition at 10 µM was determined as 22%.

Regarding `Cc1ccncc1-c1cnc2[nH]nc(-c3cc4c(-c5cccnc5)cncc4[nH]3)c2c1` [Compound 89, 5-(4-Methylpyridin-3-yl)-3-(4-(pyridin-3-yl)-1H-pyrrolo[2,3-c]pyridin-2-yl)-1H-pyrazolo[3,4-b]pyridine], the pEC50 is 5.65 in test [1], 5.48 in test [2], 5.46 in test [4] and 5.83 in test [5]. The Emax in test [3] came out at 17%.

Turning to `O=C(Nc1cncc(-c2cnc3[nH]nc(-c4cc5c(-c6cccnc6)cncc5[nH]4)c3c2)c1)c1ccccc1` [Compound 95, N-(5-(3-(4-(Pyridin-3-yl)-1H-pyrrolo[2,3-c]pyridin-2-yl)-1H-pyrazolo[3,4-b]pyridin-5-yl)pyridin-3-yl)benzamide], the inhibition at 10 µM in test [1] was 0%; in test [2], 8.7%; in test [4], 46.5%; in test [5], 0%. In addition, the pEC50 in test [1], in test [2], in test [4] and in test [5] was less than 5.00 in each case. Further, in test [3], the EC50 is 100 nM. In test [3], the Emax turned out to be 155%.

Consider `CC(C)(C)CC(=O)Nc1cncc(-c2cnc3[nH]nc(-c4cc5c(-c6cccnc6)cncc5[nH]4)c3c2)c1` [Compound 100, 3,3-Dimethyl-N-(5-(3-(4-(pyridin-3-yl)-1H-pyrrolo[2,3-c]pyridin-2-yl)-1H-pyrazolo[3,4-b]pyridin-5-yl)pyridin-3-yl)butanamide], for which the inhibition at 10 µM worked out at 17.3% in test [1] and 18.4% in test [2]. The negative-log EC50 (pEC50) in test [1] is less than 5.00; in test [2], less than 5.00; in test [4] it was 6.19; in test [5], 5.72. Besides, the Emax in test [3] is 37%.

On to `c1cncc(-c2cncc3[nH]c(-c4n[nH]c5ncc(-c6cncnc6)cc45)cc23)c1` [Compound 111, 3-(4-(Pyridin-3-yl)-1H-pyrrolo[2,3-c]pyridin-2-yl)-5-(pyrimidin-5-yl)-1H-pyrazolo[3,4-b]pyridine], for which the inhibition at 10 µM in test [1] was 11.9%; in test [2], 8.6%. For the same molecule, the negative logarithm of the EC50 (pEC50) is less than 5.00 in test [1], less than 5.00 in test [2], 5.18 in test [4] and 5.76 in test [5]. Moreover, in test [3], the Emax is 24%.

For the molecule `Nc1cncc(-c2cnc3[nH]nc(-c4cc5c(-c6ccncc6)cncc5[nH]4)c3c2)c1` [Compound 115, 5-(3-(4-(Pyridin-4-yl)-1H-pyrrolo[2,3-c]pyridin-2-yl)-1H-pyrazolo[3,4-b]pyridin-5-yl)pyridin-3-amine], the inhibition at 10 µM amounted to 13.9% in test [1] and 17.8% in test [2]. Also, the pEC50 in test [1] was less than 5.00; in test [2], less than 5.00; in test [4] it was 6.39; in test [5], 5.45. Further, the Emax in test [3] came to 32%.

Regarding `CN(C)c1cncc(-c2cnc3[nH]nc(-c4cc5c(-c6ccncc6)cncc5[nH]4)c3c2)c1` [Compound 119, N,N-Dimethyl-5-(3-(4-(pyridin-4-yl)-1H-pyrrolo[2,3-c]pyridin-2-yl)-1H-pyrazolo[3,4-b]pyridin-5-yl)pyridin-3-amine], the inhibition at 10 µM amounted to 2.5% in test [1], 8.9% in test [2], 40.7% in test [4] and 0% in test [5]. For the same molecule, the pEC50 in test [1], in test [2], in test [4] and in test [5] was less than 5.00 throughout. Moreover, the EC50 in test [3] was determined as 10 nM. In test [3], the Emax stood at 191%.

With `CC(C)(C)C(=O)Nc1cncc(-c2cnc3[nH]nc(-c4cc5c(-c6ccncc6)cncc5[nH]4)c3c2)c1` [Compound 120, N-(5-(3-(4-(Pyridin-4-yl)-1H-pyrrolo[2,3-c]pyridin-2-yl)-1H-pyrazolo[3,4-b]pyridin-5-yl)pyridin-3-yl)pivalamide], the inhibition at 10 µM in test [1] amounted to 5%; in test [2], 13.5%. Moreover, the pEC50 in test [1] is less than 5.00; in test [2], less than 5.00; in test [4], 6.71; in test [5], 5.57. Further, the Emax in test [3] amounted to 34%.

As to `CCCCC(=O)Nc1cncc(-c2cnc3[nH]nc(-c4cc5c(-c6ccncc6)cncc5[nH]4)c3c2)c1` [Compound 131, N-(5-(3-(4-(Pyridin-4-yl)-1H-pyrrolo[2,3-c]pyridin-2-yl)-1H-pyrazolo[3,4-b]pyridin-5-yl)pyridin-3-yl)pentanamide], the inhibition at 10 µM in test [1] turned out to be 3.4%; in test [2] it was 18.9%; in test [4], 24.5%; in test [5] it was 27.9%. The pEC50 in test [1], in test [2], in test [4] and in test [5] was less than 5.00 throughout. The EC50 in test [3] amounted to 10 nM. For the same molecule, in test [3], the Emax amounted to 70%.

Regarding `O=C(Nc1cncc(-c2cnc3[nH]nc(-c4cc5c(-c6ccncc6)cncc5[nH]4)c3c2)c1)C1CCC1` [Compound 133, N-(5-(3-(4-(Pyridin-4-yl)-1H-pyrrolo[2,3-c]pyridin-2-yl)-1H-pyrazolo[3,4-b]pyridin-5-yl)pyridin-3-yl)cyclobutanecarboxamide], the inhibition at 10 µM in test [1] stood at 7%; in test [2], 18.9%; in test [4] it was 43.3%. The pEC50 in test [1] was less than 5.00; in test [2] it was less than 5.00; in test [4], less than 5.00; in test [5], 5.31. The Emax in test [3] is 43%.

Consider `FC1(F)CCN(Cc2cncc(-c3cnc4[nH]nc(-c5cc6c(-c7ccncc7)cncc6[nH]5)c4c3)c2)C1` [Compound 138, 5-(5-((3,3-Difluoropyrrolidin-1-yl)methyl)pyridin-3-yl)-3-(4-(pyridin-4-yl)-1H-pyrrolo[2,3-c]pyridin-2-yl)-1H-pyrazolo[3,4-b]pyridine], for which the inhibition at 10 µM in test [1] came out at 40.8%; in test [2] it was 24.1%. The negative logarithm of the EC50 (pEC50) in test [1] is less than 5.00; in test [2], less than 5.00; in test [4], 6.31; in test [5], 6.06. Moreover, the Emax in test [3] was found to be 37%.

On to `c1cc2cc(-c3n[nH]c4ncc(-c5cncc(CN6CCCC6)c5)cc34)[nH]c2cn1` [Compound 266, 5-(5-(Pyrrolidin-1-ylmethyl)pyridin-3-yl)-3-(1H-pyrrolo[2,3-c]pyridin-2-yl)-1H-pyrazolo[3,4-b]pyridine], for which the pEC50 in test [1] was 5.31; in test [2], 5.43; in test [4], less than 5.00; in test [5], less than 5.00. The Emax in test [3] stood at 36%. Further, the inhibition at 10 µM in test [4] is 47.6%; in test [5] it was 12.9%.
